Values quoted from earlier work, collected in US20050147663A1, “Method of treatment for improved bioavailability” (priority 2003, published 2005).

Key:
[1] = enhanced by food in some instances, reduced in others
[2] = standard breakfast; capsules
[3] = delayed release formulations, drug given 30 minutes after food

| SMILES | bioavailability affected by the presence of food [1] | also measured |
| --- | --- | --- |
| CC(C)CN(C[C@@H](O)[C@H](Cc1ccccc1)NC(=O)O[C@H]1CCOC1)S(=O)(=O)c1ccc(N)cc1 [amprenavir] | affected | – |
| C[C@H]1c2cccc(O)c2C(=O)C2=C(O)[C@]3(O)C(=O)C(C(N)=O)=C(O)[C@@H](N(C)C)[C@@H]3[C@@H](O)[C@@H]21 [doxycycline] | – | bioavailability as judged by AUC and Cmax [2]: reduced |
| O=C1Nc2ccc(Cl)cc2[C@@](C#CC2CC2)(C(F)(F)F)O1 [efavirenz] | affected | – |
| COc1ccc2[n-]c([S+]([O-])Cc3ncc(C)c(OC)c3C)nc2c1.COc1ccc2[n-]c([S+]([O-])Cc3ncc(C)c(OC)c3C)nc2c1.[Mg+2] (centres unmarked) [esomeprazole magnesium] | – | decrease of the drug AUC (delayed release capsules, administration after food intake): 43-53% |
| CC(C)(C)NC(=O)[C@@H]1CN(Cc2cccnc2)CCN1C[C@@H](O)C[C@@H](Cc1ccccc1)C(=O)N[C@H]1c2ccccc2C[C@H]1O [indinavir] | affected | – |
| Nc1ccn([C@@H]2CS[C@H](CO)O2)c(=O)n1 [lamivudine] | affected | – |
| Cc1c(OCC(F)(F)F)ccnc1C[S+]([O-])c1nc2ccccc2[nH]1 (centres unmarked) [lansoprazole] | – | AUC diminished [3]: 50-70%; Cmax diminished [3]: 50-70% |
| Cc1c(O)cccc1C(=O)N[C@@H](CSc1ccccc1)[C@H](O)CN1C[C@H]2CCCC[C@H]2C[C@H]1C(=O)NC(C)(C)C [nelfinavir] | affected | – |
| COc1ccc2[nH]c([S+]([O-])Cc3ncc(C)c(OC)c3C)nc2c1 (centres unmarked) [omeprazole] | – | reduction in Cmax (20 mg delayed release capsule, administered with applesauce): 25%; food effect (40 mg delayed release capsule, with applesauce): does not show a food effect |
| COc1ccnc(C[S+]([O-])c2nc3ccc(OC(F)F)cc3[nH]2)c1OC (centres unmarked) [pantoprazole sodium] | – | Tmax variability (delayed release product): highly variable; Tmax change when given with food (delayed release product, given with food): can increase significantly |
| CC(C)c1nc(CN(C)C(=O)N[C@H](C(=O)N[C@@H](Cc2ccccc2)C[C@H](O)[C@H](Cc2ccccc2)NC(=O)OCc2cncs2)C(C)C)cs1 [ritonavir] | affected | – |
| CC(C)(C)NC(=O)[C@@H]1C[C@@H]2CCCC[C@@H]2CN1C[C@@H](O)[C@H](Cc1ccccc1)NC(=O)[C@H](CC(N)=O)NC(=O)c1ccc2ccccc2n1 [saquinavir] | affected | – |
| Nc1ccn([C@H]2CC[C@@H](CO)O2)c(=O)n1 [zalcitabine] | affected | – |
| Cc1cn([C@H]2C[C@H](N=[N+]=[N-])[C@@H](CO)O2)c(=O)[nH]c1=O [zidovudine] | affected | – |
